{"source": "patent US11219607B2", "about": "“Methods for suppressing cancer-related cachexia” (Ohio State Innovation Foundation, priority 2013, dated 2022)", "tested_on": "C-26 tumor-bearing mice", "test": "Forelimb grip strength measurement, C-26 delayed treatment", "format": "in vivo, CD2F1 mice", "details": "all drug-treated groups (start day 6, 10, 12); day 15 and 16", "protocol": "Forelimb grip strength was measured mice using a Digital Grip Strength Meter (Columbus Instruments, Columbus, Ohio). Five measurements were taken from each mouse, the average of which was designated as the mouse's grip strength.\nTo measure forelimb grip strength, each mouse was held by the base of its tail and lowered over the apparatus until its forepaws grasped the pull bar. The mouse was then gently pulled horizontally in a straight line away from the grip meter until the mouse released the bar, and the maximum force attained was recorded. Five measurements were taken from each mouse, the average of which was designated as the mouse's grip strength.", "data": [{"smiles": "CC(C)[C@H](C(=O)Nc1ccc(C(=O)NO)cc1)c1ccccc1", "note": "[AR-42, (S)—N-hydroxy-4-(3-methyl-2-phenylbutanamido)benzamide]", "values": [{"measurement": "forelimb muscle strength (handgrip dynamometry) relative to vehicle-treated control", "result": "helped preserve forelimb muscle strength"}]}]}
